The subject of one data set is Candida tropicalis. As to the kind of experiment: Susceptibility to combination of antifungal agents on disks (Example 3). Type of data set: cell-based. An excerpt:
(§1) The method of the present invention also may be used to test combinations of antifungal agents. In this method, more than one antifungal agent of known concentration is impregnated in each test disk.
(§2) Each disk is impregnated with a particular known concentration of at least one particular antifungal agent, except for the control disks. When the susceptibility of a fungus to combinations of antifungal agents is being tested, more than one antifungal agent is impregnated in each test disk.
(§3) The susceptibility of two other isolates to combinations of antifungal agents were tested by combining more than one antifungal agent on each test disk. A series of test disks were prepared containing various combinations of antifungal agents in various concentrations and were used in the method of the present invention. The results of this procedure are summarized in the following specific, non-limiting examples:
An isolate of Candida tropicalis was initially tested for amphotericin B susceptibility of 0.5 μg/ml. When a combination of amphotericin B and tetracycline were combined on the disks used in the testing procedure according to the present invention, effective inhibition of the isolate occurred using 0.05 μg/ml of amphotericin B and 0.2 μg/ml of tetracycline.

Data set [1] relates to Candida albicans. As to the kind of experiment: Susceptibility to combination of antifungal agents on disks (Example 2). It is filed as cell-based. The settings on record: Candida albicans isolate.
Excerpt: as §1, §2, §3
This is a significant reduction in amphotericin B.

For data set [2], the system named is Saccharomyces cerevisiae. As to the kind of experiment: MIC by broth dilution method, Saccharomyces cerevisiae. It is filed as cell-based. The following applies: Saccharomyces cerevisiae. An excerpt: (§4) The preparation of the nutrient media, the antifungal agents and the fungi to be tested in the present invention are similar to those reported in S. Shadomy and A. Espinel-Ingroff, "Susceptibility Testing Of Antifungal Agents", Ch. 63, pp. 569-574 in E. H. Lennett, E. H. Spaulding, and J. P. Truant, Eds., Manual Of Clinical Microbiology, 2nd Ed., American Society for Microbiology, Washington, D.C. (1974). This publication describes the susceptibility testing of antifungal agents, namely, amphotericin B, nystatin and 5-fluoro-cytosine (5-FC), by the "broth dilution method" and the "semisolid agar dilution method". At pages 570-571, it is stated:
(§5) In 10 duplicate runs with each strain tested, the variation in minimum inhibitory concentration averaged ±0.05 μg/ml.
(§6) *Broth dilution method conducted in accordance with S. Shadomy and E.
(§7) Espinel-Ingroff, "Susceptibility Testing of Antifungal Agents", Ch. 63,
(§8) pp. 569-574 in E. H. Spaulding and J. P. Truant, Eds., Manual Of Clinical
(§9) Microbiology, 2nd Ed., American Society for Microbiology, Washington, […]
A general note: Broth dilution looks for growth in wells or tubes with falling amounts of substance.

Another data set deals with Cryptococcus neoformans. The data set can be described thus: MIC by broth dilution method, Cryptococcus neoformans. It is filed as cell-based. The following applies: Cryptococcus neoformans.
Excerpt: as §4, §5, §6, §7, §8, §9

Data set [3] concerns Saccharomyces cerevisiae. The data set can be described thus: MIC by impregnated disk method, Saccharomyces cerevisiae. Type of data set: cell-based. The settings on record: Saccharomyces cerevisiae. The protocol:
Stock solutions of the antifungal agents to be tested are preferably prepared by diluting the antifungal agents in the proper nutrient medium. It is presently preferred to prepare dilutions in 10 ml of the proper medium to give the following final concentrations when applied to the disks (all quantities in micrograms per milliliter): 0.05, 0.08, 0.09, 0.1; 0.1 increment increases to 0.9, 1.0; 0.5 increment increases to 10.0; and 12.0, 14.0, 20.0, 25.0 and 50.0. Disks have been prepared by placing 0.05 ml of the above dilutions of antifungal agent containing medium on 6.5 mm diameter disks in 0.01 or 0.02 ml increments. The impregnated disks are then allowed to dry at a temperature preferably below about 10° C. […] The disks may also be dried by a lyophilization or freeze drying process.
To perform the tests in accordance with the present inventions, disks impregnated with various concentrations of antifungal agent and nutrient medium and a control disk impregnated only with the corresponding nutrient medium are placed on the fungus to be tested which has been applied to the non-nutrient medium. The disks are the inoculated non-nutrient medium are then incubated at a suitable temperature for a sufficient time to promote growth of the fungus. Any temperature is suitable if it will promote growth of the fungus without adversely affecting the fungus or the activity of the antifungal agent or agents tested. The time of incubation can be determined by observing the extent of growth around the control disk. […] The zones of growth or inhibition around the disks were read at 6, 12, 24, 36 and 48 hours after the disks were placed on the tested fungus.
The minimum inhibitory concentration is defined as the lowest concentration of antifungal agent which inhibits visible growth. The disks containing concentrations of antifungal agents below the minimum inhibitory concentration show circumscribed growth of the fungus around the disk. Disks containing concentrations of antifungal agent at or above the minimum inhibitory concentration show no circumscribed growth.
Clinical isolates of various fungi listed in Table 1 were obtained from different patients diagnosed as having fungal infections. The fungal inocula were prepared by using a 24-48 hour cultures grown in yeast nitrogen base containing 1% glucose and 0.15% asparagine. After centrifuging, the supernatant was removed, the sedimented cells were washed twice with sterile distilled water and a cell suspension was adjusted to 80% transmission at 520 nm using a Beckman DB-GT grating spectrophotometer.
Sterile liquified 2% purified agar was placed in petri dishes and allowed to harden. The surface of the agar was inoculated with a sterile cotton swab saturated with a suspension of an organism. The uniformly swabbed plates were then allowed to dry.
Disks were prepared using the dilutions described above for amphotericin B, nystatin and 5-fluorocytosine. 0.05 ml of the dilutions of each antifungal agent diluted with the appropriate nutrient medium were pipetted on 6.5 mm diameter disks. The disks were dried at 4° C. after each application. Control disks were also prepared.
Several test disks and a control disk were placed in each petri dish containing the inoculated agar. The disks and petri dishes were then incubated at 29° C. and the minimum inhibitory concentration of the various concentrations of the antifungal agents were read at 6, 12, 24, 36 and 48 hours.
as §5

The test system of another data set is Trichosporon sp. As to the kind of experiment: MIC by broth dilution method, Trichosporon sp. The settings on record: Trichosporon, read-out: Minimum Inhibitory Concentration, Broth. It is filed as cell-based.
Excerpt: as §4, §5, §6, §7, §8, §9

Data set [4] relates to Candida albicans. As to the kind of experiment: Minimum fungicidal concentration by broth dilution method. Type of data set: cell-based.
Excerpt: as §4
The minimal fungicidal concentrations of amphotericin B for the first 6 isolates of Candida albicans listed in Table 1 were determined by incubating the disks and organisms for 48 hours. At concentrations below the minimum fungicidal concentration, overgrowth occurred by 48 hours.

In the next data set the test system is C. parapsilosis. As to the kind of experiment: MIC by broth dilution method, Candida parapsilosis. Type of data set: cell-based. The settings on record: Lodderomyces parapsilosis.
Excerpt: as §4, §5, §6, §7, §8, §9

For data set [5] the following is noted: cited from earlier work.

SMILES strings stand for the structures. In brackets after ≈: the same amount, converted by molar mass. Like-named read-outs stand apart in the source and are kept apart here.

The term MFC denotes the lowest tested concentration that kills the fungus rather than only halting it. The low end stands for greater fungicidal potency, the high end for weaker fungicidal potency. Take `C[C@@H]1[C@H](O)[C@@H](C)/C=C/C=C/C=C/C=C/C=C/C=C/C=C/[C@H](O[C@@H]2O[C@H](C)[C@@H](O)[C@H](N)[C@@H]2O)C[C@@H]2O[C@](O)(C[C@@H](O)C[C@@H](O)[C@H](O)CC[C@@H](O)C[C@@H](O)CC(=O)O[C@H]1C)C[C@H](O)[C@H]2C(=O)O` [Amphotericin B, amphotericin B]: the MIC amounted to 0.5 µg/mL with Candida tropicalis (Candida tropicalis isolate, alone, initially tested, read-out: amphotericin B susceptibility); 0.8 µg/mL (≈ 0.866 µM) in the data set with Saccharomyces cerevisiae [2] (read-out: Minimum Inhibitory Concentration, Broth, S. cerevisiae isolate 2); 0.4 µg/mL (≈ 0.433 µM) in the data set with Saccharomyces cerevisiae [2] (read-out: Minimum Inhibitory Concentration, Broth, Saccharomyces cerevisiae isolate 1); 0.4 µg/mL (≈ 0.433 µM) with Cryptococcus neoformans (read-out: Minimum Inhibitory Concentration, Broth, C. neoformans isolate 2); 0.5 µg/mL (≈ 0.541 µM) in the data set with Cryptococcus neoformans (read-out: Minimum Inhibitory Concentration, Broth, C. neoformans isolate 3); 0.5 µg/mL (≈ 0.541 µM) with Cryptococcus neoformans (read-out: Minimum Inhibitory Concentration, Broth, Cryptococcus neoformans isolate 1). Besides, the MIC came out at 0.6 µg/mL (≈ 0.649 µM) in the data set on Saccharomyces cerevisiae [3] (read-out: Minimum Inhibitory Concentration, Disk, S. cerevisiae isolate 2); 0.4 µg/mL (≈ 0.433 µM) in the data set on Saccharomyces cerevisiae [3] (read-out: Minimum Inhibitory Concentration, Disk, Saccharomyces cerevisiae isolate 1); 1.1 µg/mL (≈ 1.19 µM) in the data set on Trichosporon sp.; 0.8 µg/mL (≈ 0.866 µM) in the data set on C. parapsilosis (read-out: Minimum Inhibitory Concentration, Broth, C. parapsilosis isolate 1); 0.6 µg/mL (≈ 0.649 µM) in the data set on C. parapsilosis (read-out: Minimum Inhibitory Concentration, Broth, C. parapsilosis isolate 2). For the same molecule, the “effective inhibition of the isolate, concentration of amphotericin B” value in the data set with Candida tropicalis (in combination with tetracycline 0.2 μg/ml) stood at 0.05 µg/mL. For the same molecule, the “amphotericin B susceptibility” value was 0.8 µg/mL in the data set with Candida albicans [1] (alone, previously tested) and 0.2 µg/mL with Candida albicans [1] (in combination with tetracycline). Moreover, the MFC against Candida albicans [4] (isolate 1) stood at 1.5 µg/mL (≈ 1.62 µM); against Candida albicans [4] (isolate 2), 1.6 µg/mL (≈ 1.73 µM); against Candida albicans [4] (isolate 3), 0.8 µg/mL (≈ 0.866 µM); with Candida albicans [4] (isolate 4) it was 1.1 µg/mL (≈ 1.19 µM); against Candida albicans [4] (isolate 5), 1.6 µg/mL (≈ 1.73 µM); against Candida albicans [4] (isolate 6), 6.5 µg/mL (≈ 7.03 µM). For the same molecule, in [5] (in the presence of acid), the stability in acid result is on record as “unstable in the presence of acid”. Besides, the thermal stability entry in data set [5] (upon incubation) is “subject to thermal destruction upon incubation”. In addition, the solubility in water result in data set [5] (water) is given as “insoluble in water”.

(Values after patent US4168206A, “Impregnated disk method for testing antifungal susceptibility” (Philadelphia College of Osteopathic Medicine, priority 1977, dated 1979).)
